Experimental data taken from the NIST ThermoML archive (doi:10.1016/j.fluid.2015.12.048).
± gives the expanded uncertainty stated by the source.

How the values were obtained:
[1] = Crystal
[2] = Molar enthalpy of transition or fusion; conditions: Crystal; DSC

| Normal melting temperature ([1]; DTA) | Normal melting temperature ([1]; visual observation) | Molar enthalpy of transition or fusion [2] | SMILES |
| --- | --- | --- | --- |
| 43.6 ± 0.4 °C | 42.8 ± 0.4 °C | 12.8 ± 0.36 kJ/mol | CC(C)[C@@H]1CC[C@@H](C)C[C@H]1O [L-menthol] |
| 49.7 ± 0.4 °C | 50.0 ± 0.4 °C | 17.5 ± 0.43 kJ/mol | Cc1ccc(C(C)C)c(O)c1 [3-methyl-6-isopropylphenol] |
| -15.0 ± 0.4 °C | -15.0 ± 0.4 °C |  | OCc1ccccc1 [benzenemethanol] |
| 7.0 ± 0.4 °C | 7.0 ± 0.4 °C |  | CCCCCCCCCCO [decan-1-ol] |
